In US20140088192A1, “SUBCUTANEOUSLY INFUSIBLE LEVODOPA PRODRUG COMPOSITIONS AND METHODS OF INFUSION” (SynAgile Corporation, priority 2010, published 2014):

Experiments:
[1] = Precipitation of LD from / clarity of LDEE solutions on holding
Protocol: 150 mg of LDEE was dissolved in 3 mL of physiological saline (0.90% weight/volume of NaCl/water) at about 23° C., then at about 37° C. an additional amount of 22 mg of LDEE was added for a total LDEE concentration of about 57.3 mg/mL or about 0.25M.
At the ambient temperature of about 23° C., 226 mg of LDEE was dissolved in 1 mL of 1 M HCl. To the formed aqueous LDEE.HCl solution an additional amount of about 184 mg LDEE was added, followed by about 0.1 mL deionized water.
At the ambient temperature of about 23° C., about 113 mg of LDEE was dissolved in 1 mL of 1 M HCl. To the formed aqueous LDEE.HCl solution an additional amount of about 87 mg LDEE was added, followed by about 0.1 mL distilled water.
At the ambient temperature of about 23° C., about 226 mg of LDEE was dissolved in 1 mL of 1 M acetic acid. To the formed aqueous LDEE acetate salt solution an additional amount of about 168 mg LDEE was added. […] The pH of the resulting suspension was about 7.01 at about 26.4° C.
1.7 g of LDEE (7.5 millimoles) was dissolved in 1.405 mL of aqueous 5M HCl, then enough trisodium citrate was added to increase the pH to 5.5.
After flushing with nitrogen, the solution was kept for 7 days at 23±2° C. in a vial sealed with a grey elastomeric, substantially oxygen impermeable septum.

[2] = Hydrolysis of LDEE salts to LD in aqueous solution, monitored by HPLC; format: physicochemical

With CCOC(=O)[C@@H](N)Cc1ccc(O)c(O)c1.Cl [LDEE.HCl, LDEE Hydrochloride] the “precipitation of LD” value ([1]; about 0.7 M LDEE + LDEE.HCl, pH about 6.87, 37° C., 3 hours) was “no precipitation”, the “precipitation of LD” value ([1]; about 0.7 M LDEE + LDEE.HCl, pH about 6.87, 37° C., 16 hours) was “extensive precipitation of LD” and the “precipitation of LD” value ([1]; about 1.3 M LDEE + LDEE.HCl, pH about 6.75, 37° C., 3 hours) was “no precipitation”. The “precipitation of LD” value ([1]; about 1.3 M LDEE + LDEE.HCl, pH about 6.75, 37° C., 16 hours) was “extensive precipitation of LD”, the “LD/LDEE HPLC peak ratio” value ([2]; 0.48M LDEE•HCl, 40° C., 0 hrs, initial pH 4.2) was 0.1292 and the “LD/LDEE HPLC peak ratio” value ([2]; 0.48M LDEE•HCl, 40° C., 0 hrs, initial pH 4.4) was 0.1309. For the same compound, the “LD/LDEE HPLC peak ratio” value ([2]; 0.48M LDEE•HCl, 40° C., 0 hrs, initial pH 4.6) was 0.133, the “LD/LDEE HPLC peak ratio” value ([2]; 0.48M LDEE•HCl, 40° C., 0 hrs, initial pH 4.8) was 0.1352 and the “LD/LDEE HPLC peak ratio” value ([2]; 0.48M LDEE•HCl, 40° C., 0 hrs, initial pH 5) was 0.1418. For the same compound, the “LD/LDEE HPLC peak ratio” value ([2]; 0.48M LDEE•HCl, 40° C., 0 hrs, initial pH 5.3) was 0.1547, the “LD/LDEE HPLC peak ratio” value ([2]; 0.48M LDEE•HCl, 40° C., 0 hrs, initial pH 5.6) was 0.1902 and the “LD/LDEE HPLC peak ratio” value ([2]; 0.48M LDEE•HCl, 40° C., 2 hrs, initial pH 4.2) was 0.2171. The “LD/LDEE HPLC peak ratio” value ([2]; 0.48M LDEE•HCl, 40° C., 2 hrs, initial pH 4.4) was 0.2636, the “LD/LDEE HPLC peak ratio” value ([2]; 0.48M LDEE•HCl, 40° C., 2 hrs, initial pH 4.6) was 0.2998 and the “LD/LDEE HPLC peak ratio” value ([2]; 0.48M LDEE•HCl, 40° C., 2 hrs, initial pH 4.8) was 0.3758. For the same compound, the “LD/LDEE HPLC peak ratio” value ([2]; 0.48M LDEE•HCl, 40° C., 2 hrs, initial pH 5) was 0.5202, the “LD/LDEE HPLC peak ratio” value ([2]; 0.48M LDEE•HCl, 40° C., 2 hrs, initial pH 5.3) was 0.8609 and the “LD/LDEE HPLC peak ratio” value ([2]; 0.48M LDEE•HCl, 40° C., 2 hrs, initial pH 5.6) was 1.4028. For the same compound, the “LD/LDEE HPLC peak ratio” value ([2]; 0.48M LDEE•HCl, 40° C., 6 hrs, initial pH 4.2) was 0.3079, the “LD/LDEE HPLC peak ratio” value ([2]; 0.48M LDEE•HCl, 40° C., 6 hrs, initial pH 4.4) was 0.3994 and the “LD/LDEE HPLC peak ratio” value ([2]; 0.48M LDEE•HCl, 40° C., 6 hrs, initial pH 4.6) was 0.4804. For the same compound, the “LD/LDEE HPLC peak ratio” value ([2]; 0.48M LDEE•HCl, 40° C., 6 hrs, initial pH 4.8) was 0.6546, the “LD/LDEE HPLC peak ratio” value ([2]; 0.48M LDEE•HCl, 40° C., 6 hrs, initial pH 5) was 0.9805 and the “LD/LDEE HPLC peak ratio” value ([2]; 0.48M LDEE•HCl, 40° C., 6 hrs, initial pH 5.3) was 1.7239. For the same compound, the “LD/LDEE HPLC peak ratio” value ([2]; 0.48M LDEE•HCl, 40° C., 6 hrs, initial pH 5.6) was 2.8727, the “LD/LDEE HPLC peak ratio” value ([2]; 0.48M LDEE•HCl, 40° C., 24 hrs, initial pH 4.2) was 0.8294 and the “LD/LDEE HPLC peak ratio” value ([2]; 0.48M LDEE•HCl, 40° C., 24 hrs, initial pH 4.4) was 1.1405. For the same compound, the “LD/LDEE HPLC peak ratio” value ([2]; 0.48M LDEE•HCl, 40° C., 24 hrs, initial pH 4.6) was 1.415, the “LD/LDEE HPLC peak ratio” value ([2]; 0.48M LDEE•HCl, 40° C., 24 hrs, initial pH 4.8) was 1.9804 and the “LD/LDEE HPLC peak ratio” value ([2]; 0.48M LDEE•HCl, 40° C., 24 hrs, initial pH 5) was 3.0727. For the same compound, the “LD/LDEE HPLC peak ratio” value ([2]; 0.48M LDEE•HCl, 40° C., 24 hrs, initial pH 5.3) was 5.6312, the “LD/LDEE HPLC peak ratio” value ([2]; 0.48M LDEE•HCl, 40° C., 24 hrs, initial pH 5.6) was 9.6563 and the “LD/LDEE HPLC peak ratio” value ([2]; 0.95M LDEE•HCl, 40° C., 0 hrs, initial pH 4.2) was 0.1238. The “LD/LDEE HPLC peak ratio” value ([2]; 0.95M LDEE•HCl, 40° C., 0 hrs, initial pH 4.4) was 0.1252, the “LD/LDEE HPLC peak ratio” value ([2]; 0.95M LDEE•HCl, 40° C., 0 hrs, initial pH 4.6) was 0.128 and the “LD/LDEE HPLC peak ratio” value ([2]; 0.95M LDEE•HCl, 40° C., 0 hrs, initial pH 4.8) was 0.1354. For the same compound, the “LD/LDEE HPLC peak ratio” value ([2]; 0.95M LDEE•HCl, 40° C., 0 hrs, initial pH 5) was 0.1467, the “LD/LDEE HPLC peak ratio” value ([2]; 0.95M LDEE•HCl, 40° C., 0 hrs, initial pH 5.3) was 0.1628 and the “LD/LDEE HPLC peak ratio” value ([2]; 0.95M LDEE•HCl, 40° C., 0 hrs, initial pH 5.6) was 0.1909. The “LD/LDEE HPLC peak ratio” value ([2]; 0.95M LDEE•HCl, 40° C., 2 hrs, initial pH 4.2) was 0.2073, the “LD/LDEE HPLC peak ratio” value ([2]; 0.95M LDEE•HCl, 40° C., 2 hrs, initial pH 4.4) was 0.2404 and the “LD/LDEE HPLC peak ratio” value ([2]; 0.95M LDEE•HCl, 40° C., 2 hrs, initial pH 4.6) was 0.2994. The “LD/LDEE HPLC peak ratio” value ([2]; 0.95M LDEE•HCl, 40° C., 2 hrs, initial pH 4.8) was 0.3995, the “LD/LDEE HPLC peak ratio” value ([2]; 0.95M LDEE•HCl, 40° C., 2 hrs, initial pH 5) was 0.5443 and the “LD/LDEE HPLC peak ratio” value ([2]; 0.95M LDEE•HCl, 40° C., 2 hrs, initial pH 5.3) was 0.8361. The “LD/LDEE HPLC peak ratio” value ([2]; 0.95M LDEE•HCl, 40° C., 2 hrs, initial pH 5.6) was 1.3007, the “LD/LDEE HPLC peak ratio” value ([2]; 0.95M LDEE•HCl, 40° C., 6 hrs, initial pH 4.2) was 0.2872 and the “LD/LDEE HPLC peak ratio” value ([2]; 0.95M LDEE•HCl, 40° C., 6 hrs, initial pH 4.4) was 0.3618. The “LD/LDEE HPLC peak ratio” value ([2]; 0.95M LDEE•HCl, 40° C., 6 hrs, initial pH 4.6) was 0.4867, the “LD/LDEE HPLC peak ratio” value ([2]; 0.95M LDEE•HCl, 40° C., 6 hrs, initial pH 4.8) was 0.7068 and the “LD/LDEE HPLC peak ratio” value ([2]; 0.95M LDEE•HCl, 40° C., 6 hrs, initial pH 5) was 1.0212. For the same compound, the “LD/LDEE HPLC peak ratio” value ([2]; 0.95M LDEE•HCl, 40° C., 6 hrs, initial pH 5.3) was 1.6832, the “LD/LDEE HPLC peak ratio” value ([2]; 0.95M LDEE•HCl, 40° C., 6 hrs, initial pH 5.6) was 2.7417 and the “LD/LDEE HPLC peak ratio” value ([2]; 0.95M LDEE•HCl, 40° C., 24 hrs, initial pH 4.2) was 0.7792. The “LD/LDEE HPLC peak ratio” value ([2]; 0.95M LDEE•HCl, 40° C., 24 hrs, initial pH 4.4) was 1.0438, the “LD/LDEE HPLC peak ratio” value ([2]; 0.95M LDEE•HCl, 40° C., 24 hrs, initial pH 4.6) was 1.4684 and the “LD/LDEE HPLC peak ratio” value ([2]; 0.95M LDEE•HCl, 40° C., 24 hrs, initial pH 4.8) was 2.2128. The “LD/LDEE HPLC peak ratio” value ([2]; 0.95M LDEE•HCl, 40° C., 24 hrs, initial pH 5) was 3.2875, the “LD/LDEE HPLC peak ratio” value ([2]; 0.95M LDEE•HCl, 40° C., 24 hrs, initial pH 5.3) was 5.6263 and the “LD/LDEE HPLC peak ratio” value ([2]; 0.95M LDEE•HCl, 40° C., 24 hrs, initial pH 5.6) was 9.5612. The “LD concentration versus estimated saturation concentration” value ([2]; 0.95 M and 0.48 M, 40° C., 24 hrs, up to about pH 5.5) was “remained below the estimated saturation concentration”, the “% of LDEE.HCl hydrolyzed in the 21 week period, in addition to initial 0.16%” value ([2]; 2.4 M, pH 4.0, about 4° C.) was 1.34% and the “% of LDEE.HCl hydrolyzed in the 21 week period, in addition to initial 0.15%” value ([2]; 2.5 M, pH 3.0, about 4° C.) was 0.36%. For the same compound, the “% of the LDEE.HCl hydrolyzed to LD” value ([2]; 2.5 M, pH 4.5 citrate, 24 hours at 23±2° C.) was 0.39%.
